According to publication PMC9338942, “(+)-Usnic acid and its salts, inhibitors of SARS‐CoV‐2, identified by using in silico methods and in vitro assay” (Scientific Reports, 2022):
Read-outs that look alike come from different tables or passages of the source.

Columns and labels:
[1] = test system: SARS-CoV-2 (βCoV/Korea/KCDC/2020); assay: microbe, parasite or virus in culture; assay type: cell-based; settings: for IC50: vero cells, immunofluorescence; for inhibition at 10 µM: single concentration 10 μM, read-out: Inhibition of infection (%)
[2] = test system: vero cells; settings: for Cell number to mock (%): single concentration 10 μM; for CC50: vero cells
[3] = in vitro; settings: African green monkey
[4] = test system: SARS-CoV-2 pseudovirions; settings: at 30 μM; cited from earlier work
[5] = test system: SARS-CoV-2; settings: read-out: IC50, in vitro antiviral efficacy against SARS-CoV-2; cited from earlier work
[6] = test system: COVID-19; design: method as in PMID 34480861; settings: phase 3 clinical trial; cited from earlier work
[7] = test system: SARS-CoV; settings: mice, 30 mg/kg; cited from earlier work
[8] = test system: COVID-19; design: method as in PMID 33903855; settings: cited from earlier work
[9] = Severe acute respiratory syndrome coronavirus 2, original SARS-CoV-2 strain
[10] = Severe acute respiratory syndrome coronavirus 2
[11] = CC50, vero cells, assay with Alpha var (B.1.1.7)
[12] = CC50, vero cells, assay with Beta var (B.1.351)
[13] = CC50, vero cells, assay with Delta var (B.1.617.2)
[14] = CC50, vero cells, assay with original SARS-CoV-2 strain
[15] = assay with original SARS-CoV-2 strain
[16] = assay with Delta var (B.1.617.2)

For `CC(=O)c1c(O)c(C)c(O)c2c1OC1=CC(=O)C(C(C)=O)C(=O)[C@@]12C` (single isomer, unassigned; (+)) [(+)-usnic acid], the “SI (selectivity index)” value [1] was 6.26, the IC50 [1, 9] was 7.99 µM and the inhibition at 10 µM [1, 10] was 61.6%. For the same compound, the “Cell number to mock (%)” value [2] was 94.69%, the CC50 [3, 11] was 34.8 µM and the CC50 [3, 12] was 32.4 µM. For the same compound, the CC50 [3, 13] was over 50 µM and the CC50 [3, 14] was over 50 µM.

For `CCOC(=O)[C@H]1O[C@@H]1C(=O)N[C@@H](CC(C)C)C(=O)NCCC(C)C` [Aloxistatin], the “reduction of cell entry of SARS-CoV-2 pseudovirions” value [4] is listed as 92.5%.

In the case of `Cc1ccc(N)cc1C(=O)N[C@H](C)c1cccc2ccccc12` [GRL0617], the IC50 [5] is given as 2.1 µM.

Compound `CC(=O)C1=C(O)[C@]2(C)C(=CC1=O)Oc1c(C(C)=O)c(O)c(C)c(O)c12` [KU, potassium usnate] has an IC50 ([1]; original SARS-CoV-2 strain) of 7.57 µM and a CC50 [2, 15] of over 50 µM.

With `COC1=CC(=O)[C@@]2(C)c3c(O)c(C)c(O)c(C(C)=O)c3O[C@@]2(OC)C1` [Mycousfuran A, (4aS,9bR)-6-acetyl-7,9-dihydroxy-3,4a-dimethoxy-8,9b-dimethyl-4H-dibenzofuran-1-one] the inhibition at 10 µM [1, 10] was 0.96% and the “Cell number to mock (%)” value [2] was 109.23%.

Work on `CC(=O)C1=C(O)C=C2Oc3c(C(C)=O)c(O)c(C)c(O)c3[C@]2(C)C1=O` [NaU, sodium usnate] yielded an IC50 ([1]; original SARS-CoV-2 strain) of 5.33 µM and a CC50 [2, 15] of over 50 µM.

With `C[C@]12C[C@@]34C=CC(=O)[C@@](C)(CCC(=O)Nc5c(O)ccc(C(=O)O)c5O)[C@@H]3[C@H](C[C@@H]1C4)O2` [Platensimycin, 3-[[3-[(1S,3S,4S,5aS,9S,9aR)-1,4,5,8,9,9a-Hexahydro-3,9-dimethyl-8-oxo-3H-1,4:3,5a-dimethano-2-benzoxepin-9-yl]-1-oxopropyl]amino]-2,4-dihydroxybenzoic acid] the inhibition at 10 µM [1, 10] was 3.16% and the “Cell number to mock (%)” value [2] was 109.23%.

With `CO[C@H]1[C@H](O)[C@@H](O)[C@H](n2c3c(Cl)cccc3c3c4c(c5c6cccc(Cl)c6[nH]c5c32)C(=O)NC4=O)O[C@@H]1CO` [Rebeccamycin, 1,11-Dichloro-12,13-dihydro-12-(4-O-methyl-β-D-glucopyranosyl)-5H-indolo[2,3-a]pyrrolo[3,4-c]carbazole-5,7(6H)-dione] the inhibition at 10 µM [1, 10] was 10.6% and the “Cell number to mock (%)” value [2] was 72.32%.

For `CCS(=O)(=O)N1CC(CC#N)(n2cc(-c3ncnc4[nH]ccc34)cn2)C1` [barcitinib, Barcitinib], the “reduction of 28-day mortality rate compared to placebo” value [6] is given as 38.2%.

In the case of `CN(C)C(=O)COC(=O)Cc1ccc(OC(=O)c2ccc(NC(=N)N)cc2)cc1` [camostat mesilate], the survival level [7] is given as “above 60%” and the “efficacy in clinical trials for the treatment of COVID-19” value [8] is given as “did not show any particular efficacy”.

`CCN(CC)CCCC(C)Nc1ccnc2cc(Cl)ccc12` (centres unmarked) [chloroquine] showed an IC50 [1, 9] of 11.5 µM, a CC50 ([2]; assay with Beta var (B.1.351)) of over 150 µM and a CC50 [2, 16] of over 150 µM. For the same compound, the CC50 [3] was over 150 µM.

With `Cc1cccc(C)c1OCC(=O)N[C@@H](Cc1ccccc1)[C@@H](O)C[C@H](Cc1ccccc1)NC(=O)[C@H](C(C)C)N1CCCNC1=O` [lopinavir] the “SI (selectivity index)” value [1] was 4.24, the IC50 [1, 9] was 11.8 µM and the CC50 [3, 11] was over 50 µM. For the same compound, the CC50 [3, 12] was over 50 µM, the CC50 [3, 13] was over 50 µM and the CC50 [3, 14] was over 150 µM.

For `CCC(CC)COC(=O)[C@H](C)N[P@](=O)(OC[C@H]1O[C@@](C#N)(c2ccc3c(N)ncnn23)[C@H](O)[C@@H]1O)Oc1ccccc1` [remdesivir], the IC50 [1, 9] was 7.42 µM, the “SI (selectivity index)” value ([1]; original SARS-CoV-2 strain) was 6.74 and the CC50 ([2]; assay with Beta var (B.1.351)) was over 50 µM. For the same compound, the CC50 [2, 16] was over 50 µM and the CC50 [3] was over 50 µM.
